# Results taken from patent US4405637A, “β-Lactam antibacterial agents” (Beecham Group Limited, priority 1977, dated 1983).
# Legend:
# Experiment in all cases: inhibition of bacterial growth, MIC (agar)
# Assay type in all cases: cell-based
# [1] = tested on: Klebsiella aerogenes A; conditions: read-out: concentration required to inhibit growth (MIC)
# [2] = tested on: Shigella sonnei MB 11967; conditions: MB11967, read-out: concentration required to inhibit growth (MIC)
# [3] = tested on: Staph. aureus Russell; conditions: Staphylococcus aureus, read-out: concentration required to inhibit growth (MIC)
# [4] = tested on: Staph. aureus 1517; conditions: Staphylococcus aureus, read-out: concentration required to inhibit growth (MIC)
# [5] = tested on: Staph. aureus Oxford; conditions: Staphylococcus aureus, read-out: concentration required to inhibit growth (MIC)
# [6] = tested on: Strep pyogenes CN10; conditions: Streptococcus pyogenes, Staph. pyogenes CN 10 (so in the source), read-out: concentration required to inhibit growth (MIC)
# [7] = tested on: E. coli 0111; conditions: Escherichia coli, read-out: concentration required to inhibit growth (MIC)
# [8] = tested on: Proteus mirabilis C977; conditions: read-out: concentration required to inhibit growth (MIC)
# [9] = tested on: Salmonella typhimurium CT10; conditions: Salmonella enterica, read-out: concentration required to inhibit growth (MIC)
# [10] = tested on: Bacillus subtilis A; conditions: read-out: concentration required to inhibit growth (MIC)
# [11] = tested on: Citrobacter freundii E8; conditions: read-out: concentration required to inhibit growth (MIC)
# [12] = tested on: Enterobacter cloacae N1; conditions: read-out: concentration required to inhibit growth (MIC)
# [13] = tested on: Serratia marcescens US20; conditions: read-out: concentration required to inhibit growth (MIC)
# [14] = tested on: Proteus morganii I 580; conditions: Morganella morganii, I580, read-out: concentration required to inhibit growth (MIC)
# [15] = tested on: Proteus rettgeri WM16; conditions: Providencia rettgeri, read-out: concentration required to inhibit growth (MIC)
# [16] = tested on: Salmonella typhimurium; conditions: Salmonella enterica, Salmonella typhimurium (strain not given), read-out: concentration required to inhibit growth (MIC)
MIC [16] [mg/L],SMILES,MIC [1] [mg/L],MIC [2] [mg/L],MIC [3] [mg/L],MIC [4] [mg/L],MIC [5] [mg/L],MIC [6] [mg/L],MIC [7] [mg/L],MIC [8] [mg/L],MIC [9] [mg/L],MIC [10] [mg/L],MIC [11] [mg/L],MIC [12] [mg/L],MIC [13] [mg/L],MIC [14] [mg/L],MIC [15] [mg/L]
–,"COC(=O)/C=C/C[C@@H]1C(=O)N2C(C(=O)OC3OC(=O)c4ccccc43)=CC[C@H]12 (relative stereo) [Compound 41, Phthalidyl 6-(3-methoxycarbonyl-2-propen-1-yl)-7-oxo-1-azabicyclo[3,2,0]hept-2-ene-2-carboxylate]",50,50,≤ 0.8,≤ 0.8,≤ 0.8,≤ 0.8,50,100,50,–,–,–,–,–,–
–,"N#C/C=C/C[C@@H]1C(=O)N2C(C(=O)OCc3ccccc3)=CC[C@H]12 (relative stereo) [Compound 56, Benzyl 6-(3-cyano-2-propen-1-yl)-7-oxo-1-azabicyclo[3,2,0]hept-2-ene-2-carboxylat]",20,20,≤ 2,≤ 2,≤ 2,–,20,20,20,20,20,20,20,20,20
7,"N#C/C=C/C[C@@H]1C(=O)N2C(C(=O)OC3OC(=O)c4ccccc43)=CC[C@H]12 (relative stereo) [Compound 61, Phthalidyl 6-(3-cyano-2-propen-1-yl)-7-oxo-1-azabicyclo[3.2.0]hept-2-ene-2-carboxylat]",–,–,–,–,–,–,–,–,–,–,–,–,–,–,–
–,"CC(C)(O)[C@@H]1C(=O)N2C(C(=O)OCc3ccccc3)=CC[C@H]12 (relative stereo) [Example 4 cis-isomer, Benzyl 6-(2-hydroxy-2-propyl)-7-oxo-1-azabicyclo[3,2,0]hept-2-ene-2-carboxylate]",≤ 2,≤ 2,≤ 2,–,≤ 2,–,–,–,–,–,–,20,20,–,–
